Test results as given in patent publication US20170208848A1, “PROCESS FOR MANUFACTURING AN IRON FORTIFIED FOOD PRODUCT” (NESTEC S.A., priority 2014, published 2017).

Experiment: Browning of the sprayed regions of the edible material with polysaccharide in the liquid composition
Assay type: physicochemical
Settings: polysaccharide included in the liquid composition
Description: The polysaccharide comprised in the liquid composition of the process of the invention may be selected from the group consisting of maltodextrin, acacia gum, agar-agar, carrageenan, tragacanth, locust bean gum, guar gum, xanthan gum and combinations of these. […] The polysaccharide may be carrageenan or acacia gum.

Row | Substance | browning of the sprayed regions of the edible material
1 | Carrageenan | particularly effective at preventing or delaying browning
2 | acacia gum | particularly effective at preventing or delaying browning
